One test relates to Nitrosospira multiformis. As to the kind of experiment: Nitrification inhibition assay with Nitrosospira multiformis (nitrite level after 24 h). Format: cell-based. The settings on record: for IC50 / activity at 100 µM: Nitrosospira multiformis; for IC50: 8-point dose response, 2 to 100 μM, read-out: IC50; for activity at 100 µM: tested concentration 100 μM, 24 h, normalized to DMSO (100%) and 100 μM DMP (0%), read-out: Nitrification at tested concentration (0 = maximum activity). The procedure: (§1) The compounds of formula (I) and (II) and (III)/(IV) were tested for their nitrification inhibition effect in two screens, using assays with the nitrifying bacteria N. europaea and N. multiformis. In practice, ammonium and candidate nitrification inhibitors (at 100 μM) were added to a dense bacterial culture in multiwell culture plates and after 24 h of incubation, the nitrite level was measured. To normalize for differences between batches of cultures and multiwell culture plates, for each well a relative nitrification was calculated that was normalized towards both the negative and positive controls (see “Material and Methods” below for full details).
(§2) Nitrite (NO2−) was measured using the Griess reagent (Product number: G4410, Griess reagent (modified), Sigma-Aldrich). Equal volumes of the sample or a diluted sample and the Griess reagent were mixed a transparent flat bottom multi-well plate and incubated in the dark at room temperature for 10 minutes. Absorbance values at 540 nm were measured spectrophotometrically (EnVision, Perkin Elmer®) and used to calculate the [NO2−] by use of a standard curve.
Cultures were first 5 times overconcentrated in fresh 181-medium by centrifugation (4000 rpm, 15 min, 5° C.) in 50 mL centrifuge tubes (Cat. No. 430829, CentriStar™ Conical Centrifuge Tubes, Corning®). Per batch, all the cultures were pooled in one sterile Schott bottle and subsequently dispensed in 384-well plates (Cat. No. 781086, CELLSTAR® plate, Greiner BioOne; 50 μl/well) by use of a dispenser (Multidrop™ Combi Reagent Dispenser, Thermo Scientific™) that was first flushed with 181-medium. 0.5 μl of 99.99% DMSO (negative control—final concentration […] was added to the outer two columns on the left side of the plate and 0.5 μl of 10 mM DMP (3,4-dimethylpyrazole, positive control—final concentration 100 μM) was added to the outer two columns on the right side manually. Finally, 0.5 μl of candidate nitrification inhibitors (5 mM stock solutions in 99.99% DMSO—final concentration 50 μM) were added to the central wells using a pin tool on a Tecan robot (Freedom EVO®, Tecan). In between additions, the pins were washed in sequence with 99.5% DMSO, MilliQ water and 100% ethanol and air-dried. All plates were separately wrapped in Parafilm. Stacks of 4 plates were put on top of a 96-well plate filled with 100 μl MilliQ per well, covered with aluminum foil and shaken (±150 rpm) at 30° C. 24 h later, NO2− production was assessed. For this, the samples were first 100 times diluted by pipetting 3 μl of samples into 300 μl fresh growth medium in intermediate plates (Cat. No. 353077, Falcon® 96-well Clear Round Bottom Microplate, Corning®) to then mix 15 μl of the diluted samples with 15 μl Griess reagent in the wells of a transparent, flat bottom 384-well plate (Cat. No. X^7001, Low Profile Microplate, Molecular Devices) that was measured spectrophotometrically at 540 nm (EnVision, Perkin Elmer®).
(§3) To assess the efficacy of the compounds (in terms of nitrification inhibition) and to enable comparison between plates and batches of cultures, we calculated the relative nitrification. More in detail, all nitrite results were normalized towards both a negative control, containing no compound, and a positive control, containing the benchmark (100 μM DMP), using Equation 1. This normalization was done per multi-well plate and each plate contained 32 positive and 32 negative controls.
IC50 values, that is the concentration that inhibits 50% of the nitrification, were calculated after fitting a logistic curve to 8-point dose response data, using doses between 2 and 100 μM with 1.75 fold steps. If a concentration of 2 μM already inhibited nitrification, the IC50 value could not be calculated. In that case, IC50 values represent the dose that gives inhibition closest to 50%.
The compounds of formula (I) and (II) were tested for their nitrification inhibition effect in two screens, using assays with the nitrifying bacteria N. europaea and N. multiformis. […]

Another test has as its system Nitrosomonas europaea. As to the kind of experiment: Nitrification inhibition assay with Nitrosomonas europaea (nitrite level after 24 h). The settings on record: for IC50 / activity at 100 µM: Nitrosomonas europaea; for IC50: 8-point dose response, 2 to 100 μM, read-out: IC50; for activity at 100 µM: tested concentration 100 μM, 24 h, normalized to DMSO (100%) and 100 μM DMP (0%), read-out: Nitrification (%) at tested concentration (0 = maximum activity). The class given is cell-based. The procedure: as §1, §2
To prepare a high-throughput nitrification inhibition assay using N. europaea, late-log phase cultures were subcultivated two days before the assay. Just before the assay, the cultures were 5 times overconcentrated with fresh growth medium after centrifugation (4000 rpm, 15 min, 5° C.) in 50 mL centrifuge tubes (Cat. No. 430829, CentriStar™ Conical Centrifuge Tubes, Corning®). Per batch, all the cultures were pooled in one sterile Schott bottle and subsequently dispensed into 384-well plates (Cat. No. 781086, CELL-STAR® plate, Greiner Bio-One; 50 μl/well) by use of a dispenser (Multidrop™ Combi Reagent Dispenser, Thermo Scientific™) that was first flushed with growth medium. Specifically for the high-throughput screen for new nitrification inhibitors, 0.5 μl of 99.99% DMSO (negative control—final concentration 1%) was added to the outer two columns on the left side of the plate and 0.5 μl of 10 mM DMP (3,4-dimethylpyrazole, positive control—final concentration 100 μM) was added to the outer two columns on the right side manually. Finally, 0.5 μl of candidate nitrification inhibitors (5 mM stock solutions in 99.99% DMSO—final concentration 50 μM) were added to the central wells using a pin tool on a Tecan robot (Freedom EVO®, Tecan). In between additions, the pins were washed in sequence with 99.5% DMSO, MilliQ water and 100% ethanol and air-dried. All plates were separately wrapped in Parafilm. Stacks of 4 plates were put on top of a 96-well plate filled with 100 μl MilliQ per well, covered with aluminum foil and shaken at 150 rpm at 28° C. 24 h later, NO2− production was assessed. For this, the samples were first 200 times diluted by pipetting 1.5 μl of samples into 300 μl of fresh growth medium in intermediate plates (Cat. No. 353077, Falcon® 96-well Clear Round Bottom Microplate, Corning®), to then mix 15 μl of the diluted samples with 15 μl Griess reagent in the wells of a transparent, flat bottom 384-well plate (Cat. No. X^7001, Low Profile Microplate, Molecular Devices) that was measured spectrophotometrically at 540 nm (EnVision, Perkin Elmer®).
as §3
IC50 values, that is the concentration that inhibits 50% of the nitrification, were calculated after fitting a logistic curve to 8-point dose response data, using doses between 2 and 100 μM with 1.75 fold steps. […]

Test [1] concerns NH3 or NH2OH oxidation in N. europaea cells. Nature of the test: Nitrosomonas europaea ammonia vs. hydroxylamine oxidation assay. The class given is cell-based. The settings on record: for Nitrification from NH2OH (% compared to DMSO): 1 mM NH2OH as N-source; for Nitrification from NH2OH (% compared to DMSO) / Nitrification from NH3 (% compared to DMSO): compounds 50 μM, NO2- after 30 min; for Nitrification from NH3 (% compared to DMSO): NH4+ 1 mM as N-source. The method, then:
Two days old, late-log phase cultures with a NO2− concentration between 10 and 20 mM were washed 3 times in fresh growth medium (without N) and finally 4 times overconcentrated via centrifugation (4000 rpm, 15 min, 4° C.). Transparent, flat bottom 96-well plate (Cat. No. 353072, Falcon® 96 Well Clear Flat Bottom Microplate, Corning®) were filled with 150 μl culture per well using a dispenser (Multidrop™ Combi Reagent Dispenser, Thermo Scientific™). Compounds (final concentration 50 μM) were added in triplicate to the multi-well plate by use of a Tecan robot (Freedom EVO®, Tecan). Thiourea (positive control for inhibition of NH3 oxidation—final concentration 100 μM) and phenylhydrazine hydrochloride (positive control for inhibition of NH2OH oxidation—final concentration 1 mM) were added to the outer two columns. Each plate was made in duplicate to add either 500 μM (NH4)2SO4 (final [NH4+]=1 mM) or 1 mM NH2OH. All plates were separately wrapped in Parafilm. Stacks of 4 plates were put on top of a 96-well plate filled with 100 μl MilliQ per well, covered with aluminum foil and shaken (±150 rpm) at 28° C. To prevent read-out of secondary effects on NO2− production, NO2− was measured only 30 min later. For this, the samples were first 2 times diluted by pipetting 15 μl in 15 μl fresh growth medium in 96-well intermediate plates (Cat. Ref. PCR-96-FS-C, 96-well PCR Microplate, Axygen®) to then mix 15 μl of the diluted samples with 15 μl Griess reagent in the wells of a transparent, flat bottom 384-well plate (Cat. No. X^7001, Low Profile Microplate, Molecular Devices) that was measured spectrophotometrically at 540 nm (EnVision, Perkin Elmer®).
To get insights on the targeted metabolic pathway and to discriminate between compounds that specifically affect NH3 oxidation or that affect another pathway, three representative novel nitrification inhibitors (Examples 1, 5 and 6) were tested in the “ammonia vs hydroxylamine oxidation assay” in which NO2− production from NH3 was compared with NO2− production from NH2OH.

In another test the test system is Merelbeke soil. Nature of the test: In soil nitrification inhibition assay, Merelbeke soil. The settings on record: for inhibition of ammonium consumption in soil, in words: 50 μM, one week of treatment; for inhibition at 50 µM: soil, 168 h, 7 days, read-out: % Nitrification inhibition in soil (7 days of incubation, Merelbeke soil). The method, then:
Top layer (0 to 10 cm) soil samples were collected from different fields in Belgium (Merelbeke and Moorslede). Vegetation on the field trial was removed and samples were taken from different plots. All soil samples were mixed and sieved (mesh size 2.8 mm) to filter large debris and homogenize soil. The soil was stored at 5° C. in plastic containers covered with Saran foil to prevent changes in microbial community composition and to maintain the original soil water content. Soil water content was determined by drying 20 g soil for 48 h in a 60° C. oven and measuring weight before and after drying. Based on the soil water content (±20%), compound solutions were prepared so that addition of 200 μl compound and 200 μl NH4Cl solution would result in a final compound concentration of 50 μM and a final NH4^+ concentration of 10 mM. Per treatment, 5 small pots were filled with 20 g soil. Next, the soil was treated first with the respective compound solution and then with the NH4Cl solution. Per tray, positive (50 μM DMP) and negative controls (DMSO) were included. Pots were incubated at 21° C. (6 a.m. to 10 p.m. light) for 7 days. Demineralized water was added to the soil every 2 to 3 days to a soil weight of 20 g. In the end, each sample of 20 g soil was dissolved in 100 ml 1M KCl and shaken for 1 hour, followed by filtration through Whatmann® paper. The filtrate was used to measure pH, NH4^+ and NO3− concentrations. The nitrification inhibitors were applied in a nitrification inhibition assay using agricultural soil. In practice, ammonium with or without the new nitrification inhibitors was added to soil from a field in Merelbeke (Belgium). The ammonium level was measured at the start of the experiment and at the end of the experiment, after one week of incubation. A nitrification inhibition percentage was calculated by comparing the reduction in ammonium level with the nitrification inhibitor to the reduction in ammonium without the nitrification inhibitor. Ammonium was added to soil with a high nitrification activity and treated with the nitrification inhibitors (final concentration of 50 μM). […] This validates that the new nitrification inhibitors are effectively inhibiting ammonia oxidation by soil communities.

SMILES strings stand for the structures. Entries after “also recorded” stand apart in the source; their conditions may differ.

This note sets out measurements from US20230416168A1 (EUROCHEM ANTWERPEN, priority 2020, published 2023).

`CN(Cc1c(F)cccc1Cl)CN1CCOC1=S` [Example 6, 3-[[(2-chloro-6-fluorophenyl)methyl-methylamino]methyl]-1,3-oxazolidine-2-thione]: in the test on Nitrosospira multiformis, the “nitrification inhibition, in words” value was “strong nitrification inhibition”; the IC50 (in general, the point on the concentration scale where inhibition reaches its midpoint) is less than 3.5 µM; the activity at 100 µM worked out at 0%. Besides, in the test with Nitrosomonas europaea, the “nitrification inhibition, in words” value is listed as “strong nitrification inhibition”; the IC50 turned out to be 14 µM; the activity at 100 µM is 0%. Also, in test [1], the “Nitrification from NH2OH (% compared to DMSO)” value is recorded as 80% and the “Nitrification from NH3 (% compared to DMSO)” value is 18%.

Regarding `CCC1CCCCN1C(=O)CSC1=NCCS1` (stereo not drawn) [Example 9], in the test on Merelbeke soil, the “inhibition of ammonium consumption in soil, in words” value is “significant inhibition” and the inhibition (commonly the share of the control response that was lost under treatment) at 50 µM stood at 10%. For the same compound, in the test with Nitrosospira multiformis, the IC50 was less than 6 µM and the activity at 100 µM came out at 0%. In the test with Nitrosomonas europaea, the IC50 is more than 100 µM and the activity at 100 µM is 68%.

For the compound `O=C(CSC1=NCCS1)N1CCCC1` [Example 10], in the test with Merelbeke soil, the “inhibition of ammonium consumption in soil, in words” value is “significant inhibition” and the inhibition at 50 µM was 7%. Moreover, in the test on Nitrosospira multiformis, the IC50 is less than 10 µM and the activity at 100 µM was 6%. In the test on Nitrosomonas europaea, the IC50 is more than 100 µM and the activity at 100 µM amounted to 81%.

As to `Cc1c[nH]nc1C` [Example C1, 3,4-dimethylpyrazole, reference compound], in the test with Nitrosospira multiformis, the IC50 was 14 µM and the activity at 100 µM is 0%. In the test on Nitrosomonas europaea, the IC50 stood at 6 µM and the activity at 100 µM came to 0%. In addition, in test [1], the “Nitrification from NH2OH (% compared to DMSO)” value is 56% and the “Nitrification from NH3 (% compared to DMSO)” value came to 27%. In test [1] (30 minutes assay, listed as DMP), the “effect on hydroxylamine (NH2OH) oxidation, in words” value is recorded as “reduced NH2OH oxidation; also recorded: limited effect”.
